According to patent publication US20240269196A1, “RESPIRATORY TREATMENTS USING SALMONID OIL COMPOSITIONS” (Hofseth Biocare ASA, priority 2020, published 2024):
Values joined by “and” are separate entries in the source; they are usually repeats but may differ in a detail not shown here. Equal values may be shown once. Read-outs that look alike come from different tables or passages of the source.

Columns and labels:
[1] = assay type: in vivo; details: for Mortality and Morbidity: No. of Incidence/No. of Animals: incidence of the observation 'No mortality/morbidity'
Description: Clinical signs were observed after test item administration and all the other days throughout the study period for all the animals. The cage side observations included (but not limited to) changes in skin and fur, eyes and mucous membranes, as well as respiratory, circulatory, autonomic and central nervous system, somatomotor activity and behavior pattern.
Animals were weighed during randomization, at start of treatment and weekly thereafter, until the end of experimental period.
Raw Data were processed using Statistical Software Sigma Plot 14. The mean and Standard Deviation were calculated using the Software and all data were summarized in tabular form. All continuous data like the body weight was checked for their normality and for homogeneous data, ANOVA was used.

[2] = tested on: guinea pig peritoneal eosinophils; test: Chemotactic and chemokinetic activities to leukotriene B4 of peritoneal eosinophils after i.p. pretreatment (Boyden chamber); assay type: in vivo, Cavia porcellus (Guinea Pig); details: for chemokinetic (B) activity to leukotriene B4 (0.1 uM), individual animals / chemotactic (A) activity to leukotriene B4 (0.1 uM), individual animals: guinea pig peritoneal eosinophils; for inhibition of eosinophil chemotactic and chemokinetic activities: i.p. pretreatment, n=3 per dose
Experimental: The animals used in this example were from the species Cavia porcellus (Guinea Pig). A total of 21 male guinea pigs weighing between 200-250 g were selected. These animals were manually randomized into 7 groups i.e. G1 and G2 (OmeGo Salmon oil 30 and 300 mg/kg), G3 and G4 (SEACOD 30 and 300 mg/kg), G5 and G6 were positive control (Fevipiprant 5 and 20 mg/kg) and G7 was negative control (linoleic acid 300 mg/kg) wherein each group consisted of 3 animals.
Guinea pigs were sensitized to create mild eosinphilia by intraperitoneal injection of Polymyxin B (1 mg/animal) once a week for 6 weeks. Polymyxin B was given by dissolving it in 0.9% saline solution. Each animal was injected with 0.5 mL of 0.9% saline containing 1 mg of Polymyxin B. In week 6, in addition to the Polymyxin B, animals were injected with test items belonging to their specific group, as shown in Table 5 below.
Animals were treated with Polymyxin B through an intraperitoneal injection. Along with Polymyxin B even the test items were given through the intraperitoneal route. In the 6th week animals were anesthetized using isoflurane and the intraperitoneal fluid was collected by injecting 50 mL of saline in the peritoneum cavity. After massaging the abdomen for 15 seconds the fluid was drained and collected in the centrifuge tubes. Around 30-35 mL of fluid was collected from each animal. This fluid was centrifuged for 10 mins (400×g 4° C.) and was resuspended in FBS (Fetal bovine serum) medium. Following this step, the fluid was recentrifuged for 10 min (400×g 4° C.) and the cell pellet was analyzed for chemotactic and chemokinetic responses of eosinophils to leukotriene B4 and cell counts using a 96-well microchemotaxis test chamber.
Eosinophils were recovered at greater than 90% purity using a modified procedure reported by Fukusa et. al. (Increased numbers of hypodense eosinophils in the blood of patients with bronchial asthma. Am. Rev. Respir. Dis. 1985; 132:981-985).
The animals were treated with Polymyxin B saline solution once every week for continuously 5 weeks and in the 6th week along with the Polymyxin B test item was given as per the groups. Each animal received 1 mg of Polymyxin B.
The chemotactic and chemokinetic activities were measured by the Boyden chamber method using a 96-well microchamber and expressed as the number of eosinophils counted on the membrane filter under ×400 magnification (cells/five fields). The chemokinetic activity to leukotriene B4 was examined by placing the same concentration of leukotriene B4 (0.1 μM) in both compartments of the chamber. Viability of the eosinophils was determined by the Trypan blue dye exclusion test after incubation for 90 min. All samples were assayed in duplicate. Blood was also collected on the same day and plasma was separated and stored at −20° C. for follow-on anti-inflammatory biomarker assays.

[3] = 20 mg (i.p.), compared to control

## Cc1c(CC(=O)O)c2cccnc2n1Cc1ccc(S(C)(=O)=O)cc1C(F)(F)F [Fevipiprant]
[1]; 5 mg/kg bw
  Mortality and Morbidity: Observation: No mortality/morbidity
  Mortality and Morbidity: No. of Incidence/No. of Animals: 03/03
[1]; 20 mg/kg bw
  Mortality and Morbidity: Observation: No mortality/morbidity
  Mortality and Morbidity: No. of Incidence/No. of Animals: 03/03
[2]; 5 mg/kg bw i.p.
  chemokinetic (B) activity to leukotriene B4 (0.1 uM), individual animals: 290 Cells/5 fields (2×) and 280 Cells/5 fields
  chemotactic (A) activity to leukotriene B4 (0.1 uM), individual animals: 425 Cells/5 fields and 390 Cells/5 fields and 420 Cells/5 fields
[2]; [3]
  Maximum inhibition for chemokinesis: 51.7%
  Maximum inhibition for chemotaxis: 68.0%
[2]; 20 mg/kg bw i.p.
  chemokinetic (B) activity to leukotriene B4 (0.1 uM), individual animals: 160 Cells/5 fields and 175 Cells/5 fields and 165 Cells/5 fields
  chemotactic (A) activity to leukotriene B4 (0.1 uM), individual animals: 320 Cells/5 fields and 325 Cells/5 fields and 330 Cells/5 fields
[2]
  inhibition of eosinophil chemotactic and chemokinetic activities: significantly inhibited

## CCCCC/C=C\C/C=C\CCCCCCCC(=O)O [Linoleic acid]
[2]; 300 mg/kg bw i.p.
  chemokinetic (B) activity to leukotriene B4 (0.1 uM), individual animals: 335 Cells/5 fields and 360 Cells/5 fields and 340 Cells/5 fields
  chemotactic (A) activity to leukotriene B4 (0.1 uM), individual animals: 770 Cells/5 fields and 790 Cells/5 fields and 760 Cells/5 fields
[2]
  inhibition of eosinophil chemotactic and chemokinetic activities: did not inhibit
